Experimental data published in PubChem BioAssay (NCI).
Values joined by “and” are separate entries in the source; they are usually repeats but may differ in a detail not shown here. Equal entries are not always repeated.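 Step 1: Grow cells in 96-well plates. Step 2: Expose to compound for 48 hours at 5 concentrations. Step 3: Interpolate endpoints linearly; if unreached, use highest concentration. GI50 marks 50% less growth. TGI: concentration producing complete growth inhibition.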 Peptide text beside a SMILES is read from it. * marks the point of attachment. Cbz = O=C(OCc1ccccc1)*

Key:
Test in all cases: NCI tumour cell line growth inhibition, 48 h
HOP-62 NSCLC = system: HOP-62 NSCLC
SF-539 CNS = system: SF-539 CNS
HL-60(TB) leukemia = system: HL-60(TB) leukemia
HOP-92 NSCLC = system: HOP-92 NSCLC
SN12C renal = system: SN12C renal
ACHN renal = system: ACHN renal
UACC-62 melanoma = system: UACC-62 melanoma

SMILES | TGI (HOP-62 NSCLC) | TGI (SF-539 CNS) | TGI (HL-60(TB) leukemia) | TGI (HOP-92 NSCLC) | TGI (SN12C renal) | TGI (ACHN renal) | TGI (UACC-62 melanoma) | GI50 (HOP-62 NSCLC)
COc1ccc(-c2n[nH]c3nc4ccccc4n3c2=O)cc1 | > 100 µM | > 100 µM | > 100 µM | > 100 µM | > 100 µM | > 100 µM |  | 
COc1cc(/C=C/C(=O)N[C@@H]2C(=O)N3[C@@H]2SC(C)(C)[C@@H]3C(=O)O)ccc1O | > 100 µM | > 100 µM | > 100 µM | > 100 µM | > 100 µM | > 100 µM | > 100 µM | 
N#CCc1nc(-c2cc3ccc(O)cc3oc2=O)cs1 | > 100 µM | > 100 µM | > 100 µM | > 100 µM | > 100 µM | > 100 µM | 63.3 µM | 
CNc1ccc(Cl)cc1C(=O)N1CCC[C@H]1CO | > 100 µM | > 100 µM | > 100 µM | > 100 µM | > 100 µM | > 100 µM | > 100 µM | 
Cc1cc(=O)[nH]c(Sc2ccc([N+](=O)[O-])cc2[N+](=O)[O-])n1 | > 58.5 µM |  | 11.3 µM | 19.2 µM | 28.3 µM | 38.4 µM | 41.4 µM | 
CNC(=O)OCC1=C(COC(=O)NC)CN(c2ccc(OC)cc2)C1 | > 100 µM | > 100 µM | > 100 µM | > 100 µM | > 100 µM | > 100 µM | > 100 µM | 
O=C1/C(=C\c2cccc(Oc3ccccc3)c2)SC(c2ccccc2)N1Cc1ccccc1 (stereo not drawn) | > 100 µM | 37.3 µM | 78.3 µM | 60 µM | > 100 µM | > 100 µM | > 100 µM | 
CN(C)c1ccc(C2=C([O-])c3cc(-[n+]4ccccc4)ccc3C2=O)cc1 | > 100 µM | > 100 µM | > 100 µM | > 100 µM | > 100 µM | > 100 µM |  | 
CCOC(=O)n1ccc2c(C(=O)OC)c(C(=O)OC)cc(/C(=C/C(=O)OC)C(=O)OC)c21 | > 100 µM | > 100 µM | > 100 µM | > 100 µM | > 100 µM | > 100 µM | > 100 µM | 
CCOC(=O)c1nc2ccc(C(F)(F)F)cc2nc1NCc1ccc(F)cc1 | > 100 µM | > 100 µM | > 100 µM | 29.2 µM | > 100 µM | > 100 µM | > 100 µM | 
COc1cccc(C=C(C#N)C#N)c1OC | > 100 µM | > 100 µM | > 100 µM | > 100 µM | > 100 µM | > 100 µM | > 100 µM | 
O=C(O)c1ccc2[nH]c(=O)oc2c1 | > 100 µM | > 100 µM | > 100 µM |  | > 100 µM | > 100 µM | > 100 µM | 
COC(=O)C(Cc1ccccc1)NP(=O)(O)OCC1OC(n2ccc(N)nc2=O)C(O)C1O (stereo not drawn) | > 100 µM | > 100 µM | > 100 µM | > 100 µM | > 100 µM | > 100 µM | > 100 µM | 
O=C(/C=C/c1ccc(O)c(O)c1)O[C@H]1CCCC[C@@H]1OC(=O)/C=C/c1ccc(O)c(O)c1 | 41.1 µM | > 100 µM |  | 52.1 µM | 50.1 µM | 38.3 µM | 27.4 µM | 
Oc1c(O)c(Cc2ccccc2)c(Cc2ccccc2)c(Cc2ccccc2)c1Cc1ccccc1 | > 10 µM | > 10 µM | > 10 µM | > 10 µM | > 10 µM | > 10 µM | > 10 µM | 
C/C(=N\NC(N)=S)C(CN1CCCCC1)C(C1=C(O)c2ccccc2OC1)c1ccccc1 (stereo not drawn) | > 100 µM | > 100 µM | 88.4 µM | > 100 µM | > 100 µM | > 100 µM | > 100 µM | 
O=C1C2CCCCC2C(=O)N1n1c(Cc2ccccc2)n[nH]c1=O (stereo not drawn) | > 100 µM | > 100 µM |  | > 100 µM | > 100 µM | > 100 µM | > 100 µM | 
O=C(Cc1ccccc1)Nc1nc2ccc(Cl)cc2c2nc(-c3ccco3)nn12 | > 62.4 µM | > 60.5 µM | > 100 µM | 57.1 µM | > 100 µM | > 100 µM | > 100 µM | 
CCCCCCCCCCCCCCCCCCOC(COP(=O)(O)OCC1OC(n2cc(F)c(=O)[nH]c2=O)CC1O)COP(=O)(O)OCC1OC(n2ccc(N)nc2=O)C(O)C1O (stereo not drawn) | > 100 µM | 31.1 µM | > 100 µM | > 94.8 µM | > 100 µM | > 100 µM | > 100 µM | 
C#C[C@@H](OC(=O)c1ccc([N+](=O)[O-])cc1)[C@@H]1C[C@H]2O[C@@H]([C@H](C/C=C/CC)OC(=O)c3ccc([N+](=O)[O-])cc3)C[C@H]2O1 | > 100 µM | > 100 µM |  | > 100 µM | > 100 µM | > 100 µM | > 100 µM | 
O=[N+]([O-])c1ccc2nc(/C=C(\O)c3ccccc3)c(NC34CC5CC(CC(C5)C3)C4)nc2c1 | > 10 µM | > 10 µM |  |  | > 10 µM | > 10 µM |  | 

SMILES | TGI (HOP-62 NSCLC) | TGI (SF-539 CNS) | TGI (HL-60(TB) leukemia) | TGI (HOP-92 NSCLC) | TGI (SN12C renal) | TGI (ACHN renal) | TGI (UACC-62 melanoma) | GI50 (HOP-62 NSCLC)
CCCCCCCCCc1cc(=O)c2c(O)cc(O)cc2o1 | 28.5 µM | 34.4 µM | 32.3 µM | 33.7 µM | 38.9 µM | 34.5 µM |  | 
O=C1CCCc2cc3c(cc21)CC1(C3)Cc2cc3c(cc2C1)C(=O)CCC3 | > 63.2 µM | 5.85 µM | 4.6 µM | 82.1 µM | > 85.3 µM | 35.8 µM | 30.9 µM | 
CN(C)c1cccc2c(S(=O)(=O)NCCCNCCN)cccc12 | > 100 µM | 49.7 µM | 43.8 µM | 80.4 µM | > 100 µM | > 100 µM | > 100 µM | 
CCOC1Oc2ccccc2-c2nc(N)ncc21 (stereo not drawn) |  | > 100 µM | 62.3 µM | > 100 µM | > 100 µM | > 100 µM | > 100 µM | 
CCCCCCCCCCCCCC/C(C(=O)O)=C(\C)C(=O)O | > 100 µM | > 100 µM | > 100 µM | > 100 µM | > 100 µM | > 100 µM | > 100 µM | 
CC(=O)OC1OC(C2c3cccc(O)c3C(=O)c3c(O)cc(CO)cc32)C(O)C(O)C1O (stereo not drawn) | 11.6 µM and 18.5 µM | 4.22 µM and 4.73 µM | 17.3 µM and 12.7 µM | 9.38 µM | 24.3 µM and 17.9 µM |  | 16.6 µM and 17.7 µM | 2.38 µM and 5.03 µM
O=C(c1ccccc1)N1CCC(Nc2cccnc2)O1 (stereo not drawn) | > 100 µM | > 100 µM | > 100 µM | > 100 µM | > 100 µM | > 100 µM | > 100 µM | 
CC(O)/C=C/C1OC(=O)CC1Nc1ccc(C=O)cc1 (stereo not drawn) | 77.4 µM | > 100 µM |  | 66.5 µM | > 100 µM | > 100 µM | 58.1 µM | 
CN1C(CC(O)c2ccccc2)CCCC1CC(O)(c1ccccc1)c1ccccc1 (stereo not drawn) | 27.6 µM | 27.3 µM | 41.8 µM |  | 32.3 µM | 52.2 µM | 40.7 µM | 
CC(C)C(=O)/C=C/c1ccc(Cl)cc1Cl | 33.1 µM | 34 µM | > 100 µM | 30.8 µM | 23 µM | 29.7 µM | 25.7 µM | 
Clc1ccc(C2=Cc3nc2c(-c2ccccc2)c2ccc([nH]2)c(-c2ccccc2)c2nc(c(-c4ccccc4)c4ccc([nH]4)c3-c3ccccc3)C=C2)cc1 | > 62.5 µM | > 62.5 µM | > 62.5 µM | > 62.5 µM | > 62.5 µM | > 62.5 µM | > 62.5 µM | 
N#Cc1n[nH]n(-c2ccccc2)c1=O | > 100 µM | > 100 µM | > 100 µM |  | > 100 µM | > 100 µM | > 100 µM | 
CCC1=NC(N/N=C/c2ccco2)=N/C1=C\c1ccco1 | > 100 µM |  | > 100 µM | > 100 µM | > 100 µM | > 100 µM | > 100 µM | 
Nc1nc(Cl)cc(NCC2(CO)CC=CC2)n1 | > 100 µM | > 100 µM |  | > 100 µM | > 100 µM | > 100 µM | > 100 µM | 
COc1cc([N+](=O)[O-])cc2c1NC(=O)C2(C)SC (stereo not drawn) | > 100 µM |  | 47.2 µM |  | > 100 µM | > 100 µM | > 100 µM | 
CCOC(=O)COc1cc(-c2ccccc2)nc2cc(F)ccc12 | > 100 µM | > 100 µM |  | > 100 µM | > 100 µM |  | > 100 µM | 
COC(OC)[C@@H]1OC[C@H](n2ccc(=O)[nH]c2=O)[C@H]1O | > 100 µM | > 100 µM |  | > 100 µM | > 100 µM | > 100 µM | > 100 µM | 
COc1ccc(OC)c2c1ccc1c(C)c3ccccc3c(C)c12 | > 100 µM |  | > 100 µM |  | > 100 µM | > 100 µM | > 100 µM | 
CCOC(=O)CCC(NC(=O)CNC(=O)CNC(=O)C(CCC(=O)OCC)NC(=O)C(CCC(=O)OCC)NC(=O)C(CCC(=O)OCC)NC(=O)OCc1ccccc1)C(=O)NC(CCC(=O)OCC)C(=O)NC(CCC(=O)OCC)C(=O)OCC (stereo not drawn) (Cbz-E(OEt)E(OEt)E(OEt)GGE(OEt)E(OEt)E(OEt)-OEt; configuration not given here) |  |  |  |  | > 75 µM | > 75 µM | > 75 µM | 
CCOC(=O)/C=C(\C(=O)OCC)n1cc(C)c(=O)n(Cc2cn(COCCOC(C)=O)nn2)c1=O | 38.7 µM | 9.74 µM |  | 3.91 µM | 63.3 µM | 19.5 µM | 33.8 µM | 
